Experimental data reported in patent US11739074B2, “Ras inhibitors” (Revolution Medicines, Inc., priority 2019, dated 2023).
Like-named read-outs stand apart in the source and are kept apart here.

Key:
KRAS G12D = KRAS G12D (Homo sapiens, UniProt P01116+P62937, G12D); experiment: Ras-Raf disruption/FRET/MOA assay, KRAS G12D; format: biochemical; conditions: disruption of BRAF RBD binding, with Cyclophilin A; read-out: KRAS G12D FRET IC50
Method in brief: (§1)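 Compounds promote a Cyclophilin A (25 μM) ternary complex with His6-KRAS-GMPPNP, which blocks binding of GST-BRAF^RBD (50 nM). Titration runs to a 30 μM top concentration, and loss of RAF binding is detected by TR-FRET.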

KRAS G12C = KRAS G12C (Homo sapiens, UniProt P01116+P62937, G12C); experiment: Ras-Raf disruption/FRET/MOA assay, KRAS G12C; format: biochemical; conditions: disruption of BRAF RBD binding, with Cyclophilin A; read-out: KRAS G12C FRET IC50
Chain of KRAS G12C (P01116 1-169 isoform P01116-2 G12C limits assumed): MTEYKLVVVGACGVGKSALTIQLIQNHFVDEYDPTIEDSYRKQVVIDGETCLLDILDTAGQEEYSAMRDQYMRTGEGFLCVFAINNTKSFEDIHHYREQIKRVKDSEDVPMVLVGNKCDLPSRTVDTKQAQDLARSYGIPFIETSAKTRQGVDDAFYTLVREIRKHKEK
Chain of KRAS G12C (P62937 whole entry): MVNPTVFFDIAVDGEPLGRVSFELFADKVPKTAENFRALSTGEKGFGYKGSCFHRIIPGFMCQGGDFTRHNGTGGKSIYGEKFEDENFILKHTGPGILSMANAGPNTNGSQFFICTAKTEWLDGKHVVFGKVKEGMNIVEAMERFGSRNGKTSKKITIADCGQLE
Method in brief: as §1

KRAS G12V = KRAS G12V (Homo sapiens, UniProt P01116+P62937, G12V); experiment: Ras-Raf disruption/FRET/MOA assay, KRAS G12V; format: biochemical; conditions: disruption of BRAF RBD binding, with Cyclophilin A; read-out: KRAS G12V FRET IC50
Chain of KRAS G12V (P01116 1-169 isoform P01116-2 G12V limits assumed): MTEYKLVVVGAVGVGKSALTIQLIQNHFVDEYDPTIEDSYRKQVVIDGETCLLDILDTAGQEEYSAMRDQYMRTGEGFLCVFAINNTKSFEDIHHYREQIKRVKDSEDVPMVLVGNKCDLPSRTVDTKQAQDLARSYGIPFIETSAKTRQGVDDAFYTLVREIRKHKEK
Chain of KRAS G12V (P62937 whole entry): as the sequence (P62937 whole entry) above
Method in brief: as §1

NRAS Q61K = target: T1, NRAS Q61K (Homo sapiens, UniProt P01111+P62937, Q61K); experiment: Ras-Raf disruption/FRET/MOA assay, NRAS Q61K; format: biochemical; conditions: NRAS Q61K; read-out: NRAS Q61K FRET data IC50
T1 construct: His6
T1 sequence (P01111 whole entry Q61K): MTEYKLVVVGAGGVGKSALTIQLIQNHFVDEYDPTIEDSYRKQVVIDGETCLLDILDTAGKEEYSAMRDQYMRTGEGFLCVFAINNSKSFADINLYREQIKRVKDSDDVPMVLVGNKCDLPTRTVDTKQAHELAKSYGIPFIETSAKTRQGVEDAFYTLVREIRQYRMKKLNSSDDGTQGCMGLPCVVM
T1 sequence (P62937 whole entry): as the sequence (P62937 whole entry) above
Text: (§2) Disruption of B-Raf Ras-Binding Domain (BRAF^RBD) Interaction with K-Ras by Compounds of the Invention (Also Called a FRET Assay or an MOA Assay)
(§3) Note—The following protocol describes a procedure for monitoring disruption of K-Ras G12C (GMP-PNP) binding to BRAF^RBD by a compound of the invention. This protocol may also be executed substituting other Ras proteins or nucleotides, such as K-Ras G12D and K-Ras G13D.
(§4) The purpose of this biochemical assay was to measure the ability of test compounds to facilitate ternary complex formation between a nucleotide-loaded K-Ras isoform and Cyclophilin A; the resulting ternary complex disrupts binding to a BRAF^RBD construct, inhibiting K-Ras signaling through a RAF effector.
(§5) In assay buffer containing 25 mM HEPES pH 7.3, 0.002% Tween20, 0.1% BSA, 100 mM NaCl and 5 mM MgCl2, tagless Cyclophilin A, His6-K-Ras-GMPPNP, and GST-BRAF^RBD were combined in a 384-well assay plate at final concentrations of 25 μM, 12.5 nM, and 50 nM, respectively. Compound was present in plate wells as a 10-point 3-fold dilution series starting at a final concentration of 30 μM. After incubation at 25° C. for 3 hours, a mixture of anti-His Eu-W1024 and anti-GST allophycocyanin was then added to assay sample wells at final concentrations of 10 nM and 50 nM, respectively, and the reaction incubated for an additional 1.5 hours. […] Compounds that facilitate disruption of a K-Ras:RAF complex were identified as those eliciting a decrease in the TR-FRET ratio relative to DMSO control wells.

NRAS Q61R = target: T2, NRAS Q61R (Homo sapiens, UniProt P01111+P62937, Q61R); experiment: Ras-Raf disruption/FRET/MOA assay, NRAS Q61R; format: biochemical; conditions: NRAS Q61R; read-out: NRAS Q61R FRET data IC50
T2 construct: His6
T2 sequence (P01111 whole entry Q61R): as the sequence (P01111 whole entry Q61K) above, with K61R counted along it
T2 sequence (P62937 whole entry): as the sequence (P62937 whole entry) above
Text: as §2, §3, §4, §5

AsPC-1 (K-Ras G12D) [1] = experiment: CellTiter-Glo cell viability assay, AsPC-1; format: cell-based; conditions: Homo sapiens, ASPC1, 120 h, read-out: AsPC-1 Cell Viability IC50
Method in brief: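 Compounds dispensed directly onto seeded AsPC-1 (K-Ras G12D) or NCI-H358 (K-Ras G12C) cells; CellTiter-Glo luminescence read on day 5 after ~30 min equilibration to room temperature. Signal normalized to DMSO average (%) and fit by four-parameter logistic.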

NRAS G12C = target: T3, NRAS G12C (Homo sapiens, UniProt P01111+P62937, G12C); experiment: Ras-Raf disruption/FRET/MOA assay, NRAS G12C; format: biochemical; conditions: NRAS G12C; read-out: NRAS G12C FRET data IC50
T3 construct: His6
T3 sequence (P01111 whole entry G12C): as the sequence (P01111 whole entry Q61K) above, with G12C, K61Q counted along it
T3 sequence (P62937 whole entry): as the sequence (P62937 whole entry) above
Method in brief: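 Disruption of Ras:RAF binding was read as a drop in TR-FRET ratio versus DMSO controls. The buffer was 25 mM HEPES pH 7.3, 0.002% Tween20, 0.1% BSA, 100 mM NaCl and 5 mM MgCl2. Compounds were tested as a 10-point 3-fold dilution series from 30 μM. Detection used 10 nM anti-His Eu-W1024 and 50 nM anti-GST allophycocyanin.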

KRAS WT = KRAS WT (Homo sapiens, UniProt P01116+P62937); experiment: Ras-Raf disruption/FRET/MOA assay, KRAS WT; format: biochemical; conditions: disruption of BRAF RBD binding, with Cyclophilin A; read-out: KRAS WT FRET IC50
Chain of KRAS WT (P01116 1-169 isoform P01116-2 limits assumed): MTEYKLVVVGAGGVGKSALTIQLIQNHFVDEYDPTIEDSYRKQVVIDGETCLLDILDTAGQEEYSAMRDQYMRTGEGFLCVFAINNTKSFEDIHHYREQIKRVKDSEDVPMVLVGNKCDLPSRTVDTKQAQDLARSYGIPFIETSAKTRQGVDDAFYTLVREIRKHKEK
Chain of KRAS WT (P62937 whole entry): as the sequence (P62937 whole entry) above
Method in brief: as §1

KRAS G13D = KRAS G13D (Homo sapiens, UniProt P01116+P62937, G13D); experiment: Ras-Raf disruption/FRET/MOA assay, KRAS G13D; format: biochemical; conditions: disruption of BRAF RBD binding, with Cyclophilin A; read-out: KRAS G13D FRET IC50
Chain of KRAS G13D (P01116 1-169 isoform P01116-2 G13D limits assumed): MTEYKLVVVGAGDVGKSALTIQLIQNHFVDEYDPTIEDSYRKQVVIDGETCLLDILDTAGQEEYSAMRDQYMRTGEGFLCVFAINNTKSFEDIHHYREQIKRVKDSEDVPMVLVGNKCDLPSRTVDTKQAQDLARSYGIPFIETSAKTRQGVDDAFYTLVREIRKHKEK
Chain of KRAS G13D (P62937 whole entry): as the sequence (P62937 whole entry) above
Method in brief: as §1

KRAS Q61H = KRAS Q61H (Homo sapiens, UniProt P01116+P62937, Q61H); experiment: Ras-Raf disruption/FRET/MOA assay, KRAS Q61H; format: biochemical; conditions: KRAS Q61H; read-out: KRAS Q61H FRET data IC50
Chain of KRAS Q61H (P01116 1-169 isoform P01116-2 Q61H limits assumed): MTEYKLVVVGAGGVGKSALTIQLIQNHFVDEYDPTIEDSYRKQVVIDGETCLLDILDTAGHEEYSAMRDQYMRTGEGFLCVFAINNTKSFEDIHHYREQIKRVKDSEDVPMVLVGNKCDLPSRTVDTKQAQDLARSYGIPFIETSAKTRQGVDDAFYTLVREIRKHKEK
Chain of KRAS Q61H (P62937 whole entry): as the sequence (P62937 whole entry) above
Text: as §2, §3, §4, §5

KRAS G13C = KRAS G13C (Homo sapiens, UniProt P01116+P62937, G13C); experiment: Ras-Raf disruption/FRET/MOA assay, KRAS G13C; format: biochemical; conditions: disruption of BRAF RBD binding, with Cyclophilin A; read-out: KRAS G13C FRET IC50
Chain of KRAS G13C (P01116 1-169 isoform P01116-2 G13C limits assumed): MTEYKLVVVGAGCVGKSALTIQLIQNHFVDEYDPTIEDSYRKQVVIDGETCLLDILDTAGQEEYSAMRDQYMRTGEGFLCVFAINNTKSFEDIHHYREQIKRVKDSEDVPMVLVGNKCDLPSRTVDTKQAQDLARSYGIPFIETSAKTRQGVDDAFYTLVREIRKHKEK
Chain of KRAS G13C (P62937 whole entry): as the sequence (P62937 whole entry) above
Method in brief: as §1

NRAS WT = target: T4, NRAS WT (Homo sapiens, UniProt P01111+P62937); experiment: Ras-Raf disruption/FRET/MOA assay, NRAS WT; format: biochemical; conditions: NRAS WT; read-out: NRAS WT FRET data IC50
T4 construct: His6
T4 sequence (P01111 whole entry): as the sequence (P01111 whole entry Q61K) above, with K61Q counted along it
T4 sequence (P62937 whole entry): as the sequence (P62937 whole entry) above
Text: as §2, §3, §4, §5

KRAS G12S = KRAS G12S (Homo sapiens, UniProt P01116+P62937, G12S); experiment: Ras-Raf disruption/FRET/MOA assay, KRAS G12S; format: biochemical; conditions: disruption of BRAF RBD binding, with Cyclophilin A; read-out: KRAS G12S FRET IC50
Chain of KRAS G12S (P01116 1-169 isoform P01116-2 G12S limits assumed): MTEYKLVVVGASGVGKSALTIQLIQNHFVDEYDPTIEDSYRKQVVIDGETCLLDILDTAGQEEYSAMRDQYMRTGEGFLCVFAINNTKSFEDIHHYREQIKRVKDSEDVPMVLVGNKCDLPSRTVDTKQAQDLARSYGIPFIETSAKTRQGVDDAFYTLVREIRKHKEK
Chain of KRAS G12S (P62937 whole entry): as the sequence (P62937 whole entry) above
Method in brief: as §1

AsPC-1 (K-Ras G12D) [2] = experiment: Potency assay: pERK in AsPC-1 cells; format: cell-based; conditions: Homo sapiens, ASPC1; AsPC-1 cells, K-Ras G12D; read-out: pERK EC50 (AsPC-1 KRAS G12D)
[3] = AsPC-1, K-Ras G12D, 5-day treatment

Chain of KRAS G12D (P01116 1-169 isoform P01116-2 G12D limits assumed): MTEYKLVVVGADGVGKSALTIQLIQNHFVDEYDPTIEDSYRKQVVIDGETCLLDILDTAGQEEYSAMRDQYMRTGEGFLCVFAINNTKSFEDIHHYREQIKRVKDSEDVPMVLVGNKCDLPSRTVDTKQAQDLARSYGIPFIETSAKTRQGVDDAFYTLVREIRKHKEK
Chain of KRAS G12D (P62937 whole entry): as the sequence (P62937 whole entry) above

SMILES	IC50 (KRAS G12D) [µM]	IC50 (KRAS G12C) [µM]	IC50 (KRAS G12V) [µM]	IC50 (NRAS Q61K) [µM]	IC50 (NRAS Q61R) [µM]	IC50 (AsPC-1 (K-Ras G12D) [1]) [µM]	IC50 (NRAS G12C) [µM]	IC50 (KRAS WT) [µM]	IC50 (KRAS G13D) [µM]	IC50 (KRAS Q61H) [µM]	IC50 (KRAS G13C) [µM]	IC50 (NRAS WT) [µM]	IC50 (KRAS G12S) [µM]	IC50 (AsPC-1 (K-Ras G12D) [1]; [3]) [µM]	EC50 (AsPC-1 (K-Ras G12D) [2]) [µM]
CCn1c(-c2cnccc2COC)c2c3cc(ccc31)-c1cc(O)cc(c1)C[C@H](NC(=O)[C@H](C(C)C)N(C)C(=O)CN(C)C(=O)[C@@H]1CN1S(C)(=O)=O)C(=O)N1CCC[C@H](N1)C(=O)OCC(C)(C)C2 (stereo partly shown) [Compound 37]	0.1 to 1	0.01 to 0.1	0.1 to 1	0.1 to 1	0.1 to 1	> 10	0.01 to 0.1	0.01 to 0.1	0.1 to 1	0.01 to 0.1	0.01 to 0.1	0.01 to 0.1	0.01 to 0.1		
CCn1c(-c2cccnc2[C@H](C)OC)c2c3cc(ccc31)-c1cc(O)cc(c1)C[C@H](NC(=O)[C@H](C1CCCC1)N1CC[C@@]3(CCN(C(=O)[C@@H]4N[C@@H]4C4CC4)C3)C1=O)C(=O)N1CCC[C@H](N1)C(=O)OCC(C)(C)C2 [Compound 215]	0.1 to 1	0.01 to 0.1	0.1 to 1	1 to 10	1 to 10		0.01 to 0.1	0.1 to 1	0.1 to 1	0.01 to 0.1	0.01 to 0.1	0.1 to 1	0.1 to 1	1 to 10	< 5
CCn1c(-c2cccnc2[C@H](C)OC)c2c3cc(ccc31)-c1cc(O)cc(c1)C[C@H](NC(=O)[C@H](C(C)C)N1CO[C@@]3(CCN(C(=O)[C@H]4CN4)C3)C1=O)C(=O)N1CCC[C@H](N1)C(=O)OCC(C)(C)C2 [Compound 232]	1 to 10	0.01 to 0.1	0.1 to 1	0.1 to 1	0.1 to 1		0.01 to 0.1	0.1 to 1	0.1 to 1	0.01 to 0.1	0.01 to 0.1	0.1 to 1	0.1 to 1	1 to 10	< 5
CCn1c(-c2cccnc2[C@H](C)OC)c2c3cc(ccc31)-c1cc(cc(C(F)F)c1)C[C@H](NC(=O)[C@H](C1CCCC1)N1CC[C@]3(CCN(C(=O)[C@H]4CN4)C3)C1=O)C(=O)N1CCC[C@H](N1)C(=O)OCC(C)(C)C2 [Compound 233]	1 to 10	0.1 to 1	1 to 10	1 to 10	> 10		0.1 to 1	1 to 10	1 to 10	0.1 to 1	0.1 to 1	1 to 10	1 to 10	1 to 10	< 5
